Test system: EoL-1 (human eosinophilic leukaemia cell line) cells
Assay: TNF-α-induced cytokine release, EoL-1 cells differentiated with PMA (Luminex)
Assay type: cell-based
Design: key to IL-1α (PMA), p of decrement / IL-1β (PMA), p of decrement / IL-1ra (PMA), p of decrement / IL-5 (PMA), p of decrement / IL-7 (PMA), p of decrement / IL-8 (PMA), p of decrement / IP-10 (PMA), p of decrement / MCP-1 (PMA), p of decrement / MIP-1β (PMA), p of decrement / RANTES (PMA), p of decrement / VEGF (PMA), p of decrement / Fractalkine (PMA), p of decrement / MIP-1α (PMA), p of decrement: ns = non significant
Protocol: EoL-1 (human eosinophilic leukaemia cell line) cells (Saito et al., 1985; Mayumi, 1992) were maintained in RPMI-1640 medium with L-glutamine supplemented with 10% (v/v) FBS at 37° C. in a humidified atmosphere with 5% CO2. Where indicated, 24 h before the experiment 25 ng/mL PMA ((phorbol 12-myristate 13-acetate, purchased from Sigma Aldrich) was added to the medium to induce eosinophil granulation and differentiation (Ohtsu et al., 1993; Zimmermann et al., 2000).
Half-million cells were aliquoted per point in a 24 well plate; each experiment was performed in triplicate and carried out in parallel with eosinophils differentiated and non differentiated with PMA (25 ng/mL, 24 h). Cells were suspended in low serum medium (RPMI-1640, 0.1% (v/v) FBS). TNF-α was used to induce cytokine secretion as previously described by Steube et al. (2000), and the net release was obtained by comparison to the basal (non-TNF-α treated). In the first experiment we evaluated the concentration and time relation between TNF-α stimulation and cytokine release. Therefore, 5, 10, and 25 ng/mL of TNF-α was administered to the cells at 0, ½, 1, 2, 3, 6, 12 and 24 h (data not shown). An aliquot of 150 μL of supernate was collected for cytokines' analysis. […] Differentiated and non-differentiated EoL-1 cells were exposed from 0.1 to 2.3 mM levocabastine ([…]Levocabastine 0.05% solution eye drops containing cyclodextrins, without benzalkonium chloride), and aliquots of the supernates were collected after 12 and 24 h. The content of cytokines at time zero was estimated by treating the cells with 400 nM calcimycin (A-23187), which is a cytolytic agent that frees all the mediators from the cytoplasmic compartment. In addition, for each experiment we tested the effect of the vehicle, which was added to the wells in a concentration equal to the maximum amount used for drug dilution.
Samples (supernates 12 and 24 h) in triplicate were analyzed using Luminex 200™ (Luminex, Austin, Tex.) and Beadview software v1.0 (Upstate Cell Signaling Solutions, Temecula, Calif.).
All data are presented as mean±SEM for the indicated number of experiments. Statistical significance was determined by Newman-Keuls test after ANOVA using GraphPad Prism (version 3.0; GraphPad Software Inc., San Diego, Calif., USA). P-values<0.05 were considered to be significant.

[1] = 12 h, TNF-α 5 ng + Levocabastine 2 mM vs TNF-α
[2] = 12 h, TNF-α 10 ng + Levocabastine 2 mM vs TNF-α
[3] = 12 h, TNF-α 20 ng + Levocabastine 2 mM vs TNF-α
[4] = 12 h, TNF-α 5, 10, 20 ng + Levocabastine 2 mM vs TNF-α
[5] = 24 h, FN + Levocabastine 2 mM vs FN
[6] = 24 h, Levocabastine 2 mM vs TNF-α

## C[C@@H]1CN([C@H]2CC[C@](C#N)(c3ccc(F)cc3)CC2)CC[C@]1(C(=O)O)c1ccccc1 [Levocabastine, levocabastine]
2 mM, TNF-α 5, 10 and 20 ng, 24 h, differentiated with PMA (FIG. 9)
  release of IL-8 induced by TNF-α: capable of reducing the release
0.1, 0.5 and 1.0 mM, 12 h, differentiated with PMA (FIG. 2)
  release of IL-1-ra induced by TNF-α: capable to prevent the release
0.1, 0.5 and 1.0 mM, 12 h, differentiated with PMA (FIG. 3)
  release of IL-1β induced by TNF-α: capable to prevent the release
[1]
  Fractalkine (PMA), p of decrement: ns
  G-CSF (PMA), p of decrement: ns
  GM-CSF (PMA), p of decrement: ns
  IL-1β (PMA), p of decrement: ns
  IL-5 (PMA), p of decrement: ns
  IL-6 (PMA), p of decrement: ns
  IL-7 (PMA), p of decrement: ns
  IL-8 (PMA), p of decrement: ns
  IL-10 (PMA), p of decrement: ns
  IL-12p40 (PMA), p of decrement: P < 0.001
  IP-10 (PMA), p of decrement: ns
  MCP-1 (PMA), p of decrement: ns
  MIP-1α (PMA), p of decrement: ns
  TGF-α (PMA), p of decrement: ns
  VEGF (PMA), p of decrement: P < 0.01
[2]
  Fractalkine (PMA), p of decrement: ns
  G-CSF (PMA), p of decrement: ns
  GM-CSF (PMA), p of decrement: ns
  IL-1β (PMA), p of decrement: ns
  IL-5 (PMA), p of decrement: ns
  IL-6 (PMA), p of decrement: ns
  IL-7 (PMA), p of decrement: ns
  IL-8 (PMA), p of decrement: ns
  IL-10 (PMA), p of decrement: ns
  IL-12p40 (PMA), p of decrement: P < 0.001
  IP-10 (PMA), p of decrement: ns
  MCP-1 (PMA), p of decrement: ns
  MIP-1α (PMA), p of decrement: ns
  TGF-α (PMA), p of decrement: ns
  VEGF (PMA), p of decrement: ns
[3]
  Fractalkine (PMA), p of decrement: ns
  G-CSF (PMA), p of decrement: ns
  GM-CSF (PMA), p of decrement: ns
  IL-1β (PMA), p of decrement: ns
  IL-5 (PMA), p of decrement: ns
  IL-6 (PMA), p of decrement: ns
  IL-7 (PMA), p of decrement: ns
  IL-8 (PMA), p of decrement: ns
  IL-10 (PMA), p of decrement: ns
  IL-12p40 (PMA), p of decrement: P < 0.001
  IP-10 (PMA), p of decrement: ns
  MCP-1 (PMA), p of decrement: ns
  MIP-1α (PMA), p of decrement: ns
  TGF-α (PMA), p of decrement: ns
  VEGF (PMA), p of decrement: ns
[4]
  IL-1ra (PMA), p of decrement: increase of cytokine secretion
  IL-1α (PMA), p of decrement: increase of cytokine secretion
  MIP-1β (PMA), p of decrement: increase of cytokine secretion
  RANTES (PMA), p of decrement: increase of cytokine secretion
12 h, TNF-α vs Lev 0.1 mM
  Fractalkine (PMA), p of decrement: ns
  IL-1ra (PMA), p of decrement: p < 0.01
  IL-1α (PMA), p of decrement: ns
  IL-1β (PMA), p of decrement: ns
  IL-5 (PMA), p of decrement: ns
  IL-7 (PMA), p of decrement: ns
  IL-8 (PMA), p of decrement: ns
  IP-10 (PMA), p of decrement: ns
  MCP-1 (PMA), p of decrement: ns
  MIP-1β (PMA), p of decrement: ns
  RANTES (PMA), p of decrement: ns
  VEGF (PMA), p of decrement: ns
12 h, TNF-α vs Lev 0.5 mM
  Fractalkine (PMA), p of decrement: ns
  IL-1ra (PMA), p of decrement: p < 0.001
  IL-1α (PMA), p of decrement: ns
  IL-1β (PMA), p of decrement: ns
  IL-5 (PMA), p of decrement: ns
  IL-7 (PMA), p of decrement: ns
  IL-8 (PMA), p of decrement: ns
  IP-10 (PMA), p of decrement: p < 0.01
  MCP-1 (PMA), p of decrement: ns
  MIP-1β (PMA), p of decrement: ns
  RANTES (PMA), p of decrement: ns
  VEGF (PMA), p of decrement: ns
12 h, TNF-α vs Lev 1.0 mM
  Fractalkine (PMA), p of decrement: ns
  IL-1ra (PMA), p of decrement: p < 0.001
  IL-1α (PMA), p of decrement: ns
  IL-1β (PMA), p of decrement: ns
  IL-5 (PMA), p of decrement: ns
  IL-7 (PMA), p of decrement: ns
  IL-8 (PMA), p of decrement: ns
  IP-10 (PMA), p of decrement: p < 0.05
  MCP-1 (PMA), p of decrement: ns
  MIP-1β (PMA), p of decrement: ns
  RANTES (PMA), p of decrement: ns
  VEGF (PMA), p of decrement: p < 0.05
12 h, TNF-α vs Lev 2.3 mM
  Fractalkine (PMA), p of decrement: ns
  IL-1ra (PMA), p of decrement: ns
  IL-1α (PMA), p of decrement: ns
  IL-1β (PMA), p of decrement: ns
  IL-5 (PMA), p of decrement: ns
  IL-7 (PMA), p of decrement: ns
  IL-8 (PMA), p of decrement: ns
  IP-10 (PMA), p of decrement: ns
  MCP-1 (PMA), p of decrement: ns
  MIP-1β (PMA), p of decrement: ns
  RANTES (PMA), p of decrement: ns
  VEGF (PMA), p of decrement: p < 0.01
12 h, TNF-α vs Lev 0.1-2.3 mM
  MIP-1α (PMA), change of secretion: concentration dependent increase of
  MIP-1α (PMA), p of increase: cytokine secretion p < 0.001
[5]
  Fractalkine (PMA), p of decrement: Increase
  G-CSF (PMA), p of decrement: Increase
  GM-CSF (PMA), p of decrement: ns
  IL-1ra (PMA), p of decrement: Increase
  IL-1α (PMA), p of decrement: Increase
  IL-1β (PMA), p of decrement: ns
  IL-5 (PMA), p of decrement: ns
  IL-6 (PMA), p of decrement: ns
  IL-7 (PMA), p of decrement: Increase
  IL-8 (PMA), p of decrement: Increase
  IL-10 (PMA), p of decrement: ns
  IL-12p40 (PMA), p of decrement: P < 0.01
  IP-10 (PMA), p of decrement: ns
  MCP-1 (PMA), p of decrement: Increase
  MIP-1α (PMA), p of decrement: Increase
  MIP-1β (PMA), p of decrement: Increase
  RANTES (PMA), p of decrement: Increase
  TGF-α (PMA), p of decrement: ns
  VEGF (PMA), p of decrement: P < 0.001
[6]
  Fractalkine (PMA), p of decrement: ns
  G-CSF (PMA), p of decrement: ns
  GM-CSF (PMA), p of decrement: ns
  IL-1ra (PMA), p of decrement: Increase
  IL-1α (PMA), p of decrement: Increase
  IL-1β (PMA), p of decrement: ns
  IL-5 (PMA), p of decrement: ns
  IL-6 (PMA), p of decrement: ns
  IL-7 (PMA), p of decrement: ns
  IL-8 (PMA), p of decrement: Increase
  IL-10 (PMA), p of decrement: ns

From patent US20130289070A1, “Use of Levocabastine for Modulating Generation of Pro-Inflammatory Cytokines” (Bausch & Lomb Incorporated, priority 2007, published 2013)
